Assay [1] deals with Quadruplex DNA. Briefly: Binding affinity to human MYC G4 DNA sequence. The class given is nucleic-acid assay.
The test system of a further assay is Calf thymus DNA. Briefly: Binding affinity to calf thymus DNA sequence. The format is nucleic-acid assay, Bos taurus.
For a further assay, the system named is HepG2. Briefly: Anticancer activity against human HepG2 cells. The format is functional, cell-based.
The subject of a further assay is HL-60. Briefly: Cytotoxicity against human HL-60 cells measured after 72 hrs by MTT assay. The class given is functional, cell-based. As to conditions: HL-60, 72 h.
Assay [2] concerns the target Bromodomain-containing protein 4 (Homo sapiens, UniProt O60885). The assay is described as follows: Inhibition of BRD4 (unknown origin).
Assay [3] in a line: Binding affinity to MYC bHLH Zip (unknown origin) assessed as dissociation constant by microscale thermophoresis assay. The arrangement: species or system Homo sapiens. (In general: Microscale thermophoresis detects binding through changes in fluorescence in a small temperature gradient.)
Assay [4] in a line: Growth inhibition of human Burkitts lymphoma cell. The class given is functional, cell-based.
Assay [5] can be described thus: In vivo inhibition of BRD4 in human MV4-11 cells xenografted in mouse tumor model. The class given is functional, organism-based.
Another assay relates to 4T1. The assay is described as follows: Anticancer activity against mouse 4T1 cells. The format is functional, cell-based.
The target of assay [6] is Quadruplex DNA. Briefly: Binding affinity to MYC G4-quadruplex DNA (unknown origin) assessed as dissociation constant. The class given is nucleic-acid assay.
Assay [7] is filed under the species Homo sapiens. The assay is described as follows: Binding affinity to human telomeric repeat F21T assessed as change in melting temperature at 1 uM by high-throughput FRET melting assay.
The species entered for assay [8] is Homo sapiens. The assay is described as follows: Binding affinity to double-stranded DNA FdxT (unknown origin) assessed as change in melting temperature at 1 uM by high-throughput FRET melting assay.
The species entered for assay [9] is Homo sapiens. The assay is described as follows: Binding affinity to c-MYC promoter G4 sequences FmycT (unknown origin) assessed as change in melting temperature at 1 uM by high-throughput FRET melting assay.

As a reminder, the Kd is the concentration at which binding is half-saturated. One may read the IC50 as the concentration that gives 50% inhibition. Regarding `CN(CCc1ccc(Br)cc1)c1ccc2nc3ccc(N(C)CCc4ccc(Br)cc4)cc3[s+]c2c1`, the Kd turned out to be 70 nM at Quadruplex DNA [1] and 11000 nM in the assay on Calf thymus DNA. Further, the IC50 with HepG2 came out at 1000 nM. For the compound `O=[N+]([O-])c1ccc(Nc2ccccc2-c2ccccc2)c2nonc12`, the IC50 in the assay with HL-60 turned out to be 23000 nM. As to `COC(=O)c1ccc(Nc2ccc([N+](=O)[O-])c3nonc23)c(-c2ccc(C)cc2)c1`, half-maximal inhibition in the assay with HL-60 (IC50) required 23000 nM. On to `Oc1ccc(Cl)c2cccnc12` [CLOXYQUIN], for which inhibition in [2] was half-maximal at 6470 nM (IC50). Turning to `CCOc1ccc2nc3cc(/N=N/c4ccc(N)cc4N)ccc3c(N)c2c1`, the Kd in assay [3] was found to be 2000 nM. The IC50 in assay [4] amounted to 500 nM. On to `Cc1noc2c1-c1ccccc1C(c1ccc(Cl)cc1)=N[C@H]2CC(N)=O` [PELABRESIB], for which, in [5], the IC50 worked out at 120 nM.

`CN1CCN(c2ccc(-c3nc4cc(F)c(F)cc4nc3-c3ccc(N4CCN(C)CC4)cc3)cc2)CC1` registered an IC50 in the assay on 4T1 of 700 nM. The Kd on Quadruplex DNA [6] is 1300 nM. `CCCCOC(=O)CCN1C(=O)S/C(=C\c2ccc(CC)cc2)C1=O` returned an IC50 with HL-60 of 5000 nM. Consider `CN1CCN(c2ccc(-c3nc(-c4nc5ccccc5s4)[nH]c3-c3ccc(N4CCN(C)CC4)cc3)cc2)CC1`, for which the IC50 turned out to be 3900 nM in the assay with 4T1 and 4500 nM with HepG2. Moreover, the Kd on Quadruplex DNA [6] was determined as 2000 nM. What is called ΔTm is the shift of the melting midpoint relative to a reference. With `c1cc2ccc3ccc4nc3c2nc1CNCCCCCCCNC4`, the ΔTm in the assay listed under Homo sapiens [7] stood at 9.2 °C; in the assay filed under Homo sapiens [8] it was 9.2 °C; in the assay listed under Homo sapiens [9], 3.6 °C. Compound `CCS(=O)(=O)Nc1ccc(Oc2ccc(F)cc2F)c(-c2cn(C)c(=O)c3[nH]ccc23)c1` [MIVEBRESIB] registered an IC50 in assay [2] of 3 nM. `CCn1cc(C(=O)O)c(=O)c2cc(F)c(N3CCNCC3)cc21` [NORFLOXACIN] returned an IC50 in assay [2] of 980 nM. In the case of `C[n+]1cc(NC(=O)c2ccc3ccc4ccc(C(=O)Nc5cc6ccccc6[n+](C)c5)nc4c3n2)cc2ccccc21`, the results for the ΔTm in the assay filed under Homo sapiens [7], in the assay filed under Homo sapiens [8] and in the assay listed under Homo sapiens [9] were 17.3 °C, 0 °C and 12 °C, respectively. `O=c1oc2c3c4c(cc2cc1-c1nc2ccccc2s1)CCCN4CCC3`: the equilibrium dissociation constant (Kd) on Quadruplex DNA [6] was 2000 nM. Consider `CN(C)c1ccc2nc3ccc(N(C)C)cc3[s+]c2c1` [METHYLENE BLUE ANHYDROUS], for which the Kd on Quadruplex DNA [1] and with Calf thymus DNA was 200 nM each time. This compound showed a concentration for half-maximal inhibition (IC50) with HepG2 of 6000 nM.

The record behind these values is ChEMBL document CHEMBL5233264, “Targeting MYC: From understanding its biology to drug discovery” (Eur J Med Chem, 2021).
